This passage reports viability and IC50 results from ChEMBL document CHEMBL6134906, “Design, Synthesis, and Biological Evaluation of Selective STING Synergists That Enhance cGAMP-STING Pathway Activation without Inherent Agonist Activity” (J Med Chem, 2025).

As usually defined, the pIC50 is −log10 of the IC50, conventionally taken in molar units. Low values mean a large IC50, high ones a small IC50.

pIC50: −log10 of the molar value.

Assay [1] deals with THP-1. The assay is described as follows: Cytotoxicity against human THP-1 cells assessed as cell viability at 100 uM incubated for 48 hrs by CellTiter Glo luminescent cell viability assay relative to control. The settings on record: THP-1, 48 h, read-out: Activity. A general note: ATP-based viability assays read luminescence as a measure of living cells.
The target of assay [2] is Stimulator of interferon genes protein (Homo sapiens, UniProt Q86WV6).
Stimulator of interferon genes protein, sequence (Q86WV6 whole entry): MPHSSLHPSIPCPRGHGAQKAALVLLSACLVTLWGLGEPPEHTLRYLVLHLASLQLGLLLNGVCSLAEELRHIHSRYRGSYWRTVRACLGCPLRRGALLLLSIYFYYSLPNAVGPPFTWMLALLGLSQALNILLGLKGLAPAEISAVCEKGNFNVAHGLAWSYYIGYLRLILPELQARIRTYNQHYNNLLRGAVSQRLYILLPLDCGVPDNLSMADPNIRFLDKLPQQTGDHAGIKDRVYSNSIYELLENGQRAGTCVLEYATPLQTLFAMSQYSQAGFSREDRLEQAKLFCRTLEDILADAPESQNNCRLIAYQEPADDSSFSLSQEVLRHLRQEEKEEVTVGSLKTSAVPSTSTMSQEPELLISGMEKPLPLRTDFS

`COc1cc2c(=O)c3c(Cl)ccc(CC(=O)O)c3[nH]c2c(C)c1C`: in assay [1], the viability at 100 µM was 95.4%.

For `COc1cc2c(=O)c3cccc(C(=O)O)c3[nH]c2c(C)c1C`, in assay [1], the viability at 100 µM was found to be 92.1%.

For `CCOC(=O)Cn1c2ccccc2c(=O)c2cc(OC)c(C)c(C)c21`, in assay [1], the viability at 100 µM stood at 93.5%.

Take `COc1ccc2c(c1)c(=O)c1cc(OC)c(C)c(C)c1n2CC(=O)O`: the pIC50 in assay [2] is 4.95. Besides, the viability at 100 µM in assay [1] was determined as 83.3%.

The compound `Cc1ccc2c(=O)c3c(F)ccc(CC(=O)O)c3[nH]c2c1C` gave a pIC50 in assay [2] of less than 4.00. Besides, the viability at 100 µM in assay [1] is 103%.

The compound `Cc1ccc2c(=O)c3cccc(CC(=O)O)c3[nH]c2c1C` gave a negative-log IC50 (pIC50) in assay [2] of less than 4.00. Also, the viability at 100 µM in assay [1] was determined as 93.4%.

`CCOC(=O)Cn1c2ccc(OC)cc2c(=O)c2cc(OC)c(C)c(C)c21` had a pIC50 in assay [2] of 4.59. For the same compound, the viability at 100 µM in assay [1] came out at 102%.

In turn, `COc1ccc2c(c1)c(=O)c1ccc(C)c(C)c1n2CC(=O)O` had a pIC50 in assay [2] of less than 4.00. Moreover, the viability at 100 µM in assay [1] amounted to 95.8%.

As for `Cc1ccc2c(=O)c3cc(Cl)cc(CC(=O)O)c3[nH]c2c1C`, the pIC50 in assay [2] was less than 4.00. Also, the viability at 100 µM in assay [1] worked out at 83.4%.

In the case of `COc1cc2c(=O)c3cc(Cl)cc(CC(=O)O)c3[nH]c2c(C)c1C`, the viability at 100 µM in assay [1] turned out to be 82%.

As to `COc1ccc2c(c1)c(=O)c1cc(OC)c(C)c(C)c1n2CC(=O)OCC(C)(C)C`, the pIC50 in assay [2] is 4.47. Besides, the viability at 100 µM in assay [1] amounted to 93.3%.

As for `COc1cc2c(=O)c3ccccc3n(CC(=O)O)c2c(C)c1C`, the pIC50 in assay [2] was 5.08. Further, the viability at 100 µM in assay [1] was determined as 86.9%.

For the compound `COc1cc2c(=O)c3cc(F)cc(CC(=O)O)c3[nH]c2c(C)c1C`, the viability at 100 µM in assay [1] was determined as 106%.

The compound `COc1ccc2[nH]c3c(C)c(C)ccc3c(=O)c2c1` gave a pIC50 in assay [2] of 4.86. The viability at 100 µM in assay [1] is 98.8%.

For the compound `COc1cc(C(=O)O)c2[nH]c3c(C)c(C)c(OC)cc3c(=O)c2c1`, in assay [1], the viability at 100 µM was found to be 96.5%.

Turning to `COc1cc2c(=O)c3c(F)ccc(CC(=O)O)c3[nH]c2c(C)c1C`, the viability at 100 µM in assay [1] came to 87.8%.

With `CCOC(=O)Cn1c2ccc(OC)cc2c(=O)c2ccc(C)c(C)c21`, the pIC50 in assay [2] is less than 4.00. Also, in assay [1], the viability at 100 µM worked out at 99.2%.

In assay [2], `Cc1ccc2c(=O)c3c(Cl)ccc(CC(=O)O)c3[nH]c2c1C` showed a negative logarithm of the IC50 (pIC50) of less than 4.00. In assay [1], the viability at 100 µM was found to be 87.7%.

In assay [2], `Cc1ccc2c(=O)c3cc(F)cc(CC(=O)O)c3[nH]c2c1C` gave a negative-log IC50 (pIC50) of less than 4.00. Further, the viability at 100 µM in assay [1] worked out at 99%.

Compound `COc1cc2c(=O)c3cc(C)ccc3n(CC(=O)O)c2c(C)c1C` gave a pIC50 in assay [2] of 4.60. Further, in assay [1], the viability at 100 µM was found to be 105%.

In turn, `COc1cc(CC(=O)O)c2[nH]c3c(C)c(C)c(OC)cc3c(=O)c2c1` had a pIC50 in assay [2] of 4.94. The viability at 100 µM in assay [1] is 86.7%.

`COc1cc2c(=O)c3cc(C)cc(C(=O)O)c3[nH]c2c(C)c1C`: in assay [2], the negative logarithm of the IC50 (pIC50) is 5.23. Besides, the viability at 100 µM in assay [1] was found to be 98.4%.

`COc1cc(C(=O)O)c2[nH]c3c(C)c(C)ccc3c(=O)c2c1` showed a pIC50 in assay [2] of less than 4.00. For the same compound, the viability at 100 µM in assay [1] came out at 91.3%.

Regarding `COC(=O)Cn1c2ccc(C)cc2c(=O)c2cc(OC)c(C)c(C)c21`, the pIC50 in assay [2] is 4.38. The viability at 100 µM in assay [1] came out at 85.7%.

Take `COc1cc2c(=O)c3cccc(CC(=O)O)c3[nH]c2c(C)c1C`: the negative-log IC50 (pIC50) in assay [2] was 4.55. For the same compound, in assay [1], the viability at 100 µM was 91.4%.
